Experimental data published in patent US7053082B1, “2,3-benzodiazepine derivatives” (priority 1999, dated 2006).

How the values were obtained:
[1] = Duration of action in rats as assessed from the decrease in body core temperature; assay type: in vivo; settings: male Wistar rats, i.p.; for PE, Δ ° C. (peak effect, maximum decrease in body temperature): radiotelemetry core body temperature, versus last value prior to treatment; for D, hours (duration of action): time from treatment to return of body temperature to the control level
Procedure: At least one week prior to treatments six male Wistar rats were anaesthetised with pentobarbital-Na (60 mg/kg, i.p.; Nembutal, Phylaxia-Sanofi, Budapest). Using sterile surgical procedures TL11M2-C50-PXT or TA10TA-F40 type radiotelemetry transmitters (Data Sciences International, St. Paul, Minn., USA) permitting continuous monitoring of core body temperature were implanted into the peritoneal cavity of the animals. After surgery the rats were treated with an antibiotic (1 ml/kg b.w. i.m. Tardomyocel, Bayer A G, Leverkusen, Germany). The animals were housed individually in type 2 plastic rat cages with free access to food and tap water. The compounds were dissolved in 5 M hydrochloric acid solution and distilled water (5%/95% v/v) then the pH of the solution was adjusted to 3 using 1 M sodium hydroxide solution. The compounds were administered intraperitoneally in a volume of 10 ml/kg.
Radio signals emitted by the transmitters were detected by RLA1000 type receivers placed under each animal's cage. Data were collected and saved by a Dataquest IV computerised data acquisition system. The computer was set to sample body temperature for 10 seconds in every second minute. Mean values for 30 min periods over the whole day were calculated running the “Sort Utility” of the Dataquest IV. […] The upper and lower limits of the evaluating routine were set to exclude biologically improbable values. Individual body temperature curves were averaged for the six animals.
Peak effect (PE) was measured as the maximum decrease in body temperature in comparison to the last value prior to treatment. Using mean values, duration of action (D) was measured as the time interval from treatment to return of body temperature to the control level.

[2] = system: MgCl2-induced global cerebral ischemia in mice; assay: Neuroprotective effect in MgCl2-induced global cerebral ischemia in mice; assay type: in vivo; settings: dose that prolonged survival time by 50%; i.p. 30 min before i.v. saturated MgCl2 (5 ml/kg); male NMRI mice
Procedure: Male NMRI mice weighing 20–25 g were randomly allocated to treatment groups of 10 animals/group. The compounds were dissolved in 5 M hydrochloric acid solution and distilled water (5%/95% v/v) then the pH of the solution was adjusted to 3 using 1 M sodium hydroxide solution. The compounds were administered intraperitoneally in a volume of 10 ml/kg. Each compound was tested at four increasing dose levels and a separate group of animals was treated with the vehicle. Thirty min after treatment all mice received an intravenous bolus injection of saturated MgCl2 solution (5 ml/kg) that caused an immediate cardiac arrest and complete cerebral ischemia. Increases in survival time (interval between the injection of MgCl2 and the last observable gasp) were used as a measure of neuroprotective effect as described by Berga et al.. Percentage changes in survival time were calculated in comparison to that measured in the vehicle treated group. PD50 (the dose that prolonged survival by 50%) was calculated by linear regression analysis using percentage changes in survival time.

| SMILES | melting point [°C] | further results |
| --- | --- | --- |
| Cc1cc(C2=NN=C(C(=O)O)Cc3cc4c(cc32)OCO4)ccc1[N+](=O)[O-] | 185 to 186 | – |
| CC(=O)N1N=C(c2ccc(N)c(C)c2)c2cc3c(cc2C=C1C)OCO3 | 222 to 223 | – |
| CC(=O)N1N=C(c2ccc(N)c(C)c2)c2cc3c(cc2CC1C)OCO3 (racemic) [Example 27, (±)-7-acetyl-5-(4-amino-3-methyl-phenyl)-7,8-dihydro-8-methyl-9H-1,3-dioxolo[4,5-h][2,3]benzodiazepine] | 121 to 123 | PE, Δ ° C. (peak effect, maximum decrease in body temperature) [1]: −1.45 °C; D, hours (duration of action) [1]: >20 h; PD50, mg/kg i.p. [2]: 5.4 mg/kg |
| Cc1cc(C2=NN=C(C=NNC(N)=O)Cc3cc4c(cc32)OCO4)ccc1[N+](=O)[O-] | 260 to 264 | – |
| Cc1cc(C2=NN=C(C#N)Cc3cc4c(cc32)OCO4)ccc1N | 252 to 255 | – |
| Cc1cc(C2=NN=C(C=O)Cc3cc4c(cc32)OCO4)ccc1[N+](=O)[O-] | 188 to 191 | – |
| CC(=O)N1N=C(c2ccc([N+](=O)[O-])c(C)c2)c2cc3c(cc2CC1(C)C#N)OCO3 (racemic) | 253 to 255 | – |
| CC(=O)N1N=C(c2ccc([N+](=O)[O-])c(C)c2)c2cc3c(cc2CC1C)OCO3 (racemic) | 178 to 181 | – |
| CC1=NN=C(c2ccc([N+](=O)[O-])c(C)c2)c2cc3c(cc2C1)OCO3 | 189 to 194 | – |
| Cc1cc(C2=NNC(C)(C#N)Cc3cc4c(cc32)OCO4)ccc1[N+](=O)[O-] (racemic) | 148 to 151 | – |
| CONC(=O)N1N=C(c2ccc(N)c(C)c2)c2cc3c(cc2CC1C)OCO3 (racemic) [Example 30, (±)-5-(4-amino-3-methyl-phenyl)-7,8-dihydro-8-methyl-7-(N-methozy-carbamoyl)-9H-1,3-dioxolo[4,5-h][2,3]benzodiazepine] | – | PD50, mg/kg i.p. [2]: 14.9 mg/kg |
| CCC(=O)N1N=C(c2ccc([N+](=O)[O-])c(C)c2)c2cc3c(cc2CC1(C)C#N)OCO3 (racemic) | 191 to 193 | – |
| CCC(=O)N1N=C(c2ccc([N+](=O)[O-])c(C)c2)c2cc3c(cc2CC1C)OCO3 (racemic) | 172 to 175 | – |
| CC1=Cc2cc3c(cc2C(c2ccc([N+](=O)[O-])c(C)c2)=NN1C(=O)NC1CC1)OCO3 | 198 to 202 | – |
| CC(=O)N1N=C(c2ccc(N)c(C)c2)c2cc3c(cc2CC1(C)C#N)OCO3 (racemic) [Example 38, (±)-7-acetyl-5-(4-amino-3-methyl-phenyl)-8-cyano-7,8-dihydro-8-methyl-9H-1,3-dioxolo[4.5-h][2.3]benzodiazepine] | – | PE, Δ ° C. (peak effect, maximum decrease in body temperature) [1]: −1.34 °C; D, hours (duration of action) [1]: 9 h; PD50, mg/kg i.p. [2]: 11.2 mg/kg |
| Cc1cc(C2=NN(C(=O)NC3CC3)C(C)Cc3cc4c(cc32)OCO4)ccc1N (racemic) | 179 to 181 | – |
| CC(=O)N1N=C(c2ccc([N+](=O)[O-])c(C)c2)c2cc3c(cc2CC1C(N)=O)OCO3 (racemic) | 157 to 161 | – |
| CNC(=O)N1N=C(c2ccc(N)c(C)c2)c2cc3c(cc2CC1C)OCO3 (racemic) [Example 31, (±)-5-(4-amino-3-methyl-phenyl)-7,8-dihydro-8-methyl-7-(N-methyl-carbamoyl)-9H-1,3-dioxolo[4.5-h][2.3]benzodiazepine] | – | PE, Δ ° C. (peak effect, maximum decrease in body temperature) [1]: −1.46 °C; D, hours (duration of action) [1]: 20 h |
